We go through 1 molecule from ChEMBL document CHEMBL1158307, “Hippospongins AF: New Furanoterpenes from a Southern Australian Marine Sponge Hippospongia sp” (J Nat Prod, 1996).

Activity calls are given as the source filed them. No cut-off for these calls is given here.

In the assay the test system is Staphylococcus aureus. Put plainly: Antibacterial activity against Staphylococcus aureus at 200 ug/disk by standard agar plate assay. It counts as functional, organism-based.

`CC(CCCc1coc(CC(C)C(=O)O)c1)Cc1cc(CCCc2ccoc2)co1` (stereo unspecified): the outcome was Active.
